# Biological target: human catalytic domain HDAC4 protein (amino acids 648-1032) (Homo sapiens (Human), UniProt P56524)
# Test: Inhibition of HDAC4 catalytic domain enzymatic activity, fluorogenic substrate Boc-Lys(Tfa)-AMC
# Settings: read-out: Biochemical HDAC-4 IC50
# Description: Analysis of Inhibition of HDAC4 with Class IIa Histone Deacetylase (HDAC) Inhibitors
# The potency of Class IIa Histone Deacetylase (HDAC) inhibitors is quantified by measuring the Histone Deacetylase 4 (HDAC4) catalytic domain enzymatic activity using the fluorogenic substrate, Boc-Lys(Tfa)-AMC. The substrate is deacetylated to Boc-Lys-AMC by HDAC4. Cleavage by trypsin results in the release of the fluorophore AMC from the deacetylated substrate. The fluorescence of the sample is directly related to the histone deacetylase activity in the sample.
# Serial dilutions of the HDAC inhibitors and control reference compound (1-(5-(3-((4-(1,3,4-oxadiazol-2-yl)phenoxy)methyl)-1,2,4-oxadiazol-5-yl)thiophen-2-yl)-2,2,2-trifluoroethanone) are made by first resuspending the lyophilized compound to a final concentration of 10 mM in 100% dimethyl sulfoxide (DMSO). Stocks of 60 μl aliquots of the 10 mM compound in DMSO are prepared and stored at −20° C. From one stock aliquot of each compound to be tested and the reference compound, a 16-point serial dilution is prepared according to
# 2 μl (200×) of each diluted solution and each control (full activity: 100% DMSO alone or full inhibition 1 mM) is stamped into V-bottomed polypropylene 384-well compound plates using either the Bravo (384-well head from Agilent) or 12.5 μl 16-channel Matrix multi-channel pipette (Matrix Technologies Ltd).
# A working solution of enzyme is prepared from a 500 μg/ml stock aliquot of HDAC4 catalytic domain (thawed on ice) diluted to 0.2 μg/ml with assay buffer (50 mM Tris-HCl, 137 mM NaCl, 2.7 mM KCl, and 1 mM MgCl2 at pH 8 and equilibrated to room temperature) just prior to the addition of the enzyme to the assay.
# 5× (50 μM) substrate is prepared just prior to the addition to the assay. A 1 mM substrate stock is made by diluting a 100 mM Boc-Lys(Tfa)-AMC in DMSO solution 1:100 by adding it drop-wise to assay buffer (equilibrated to room temperature) while vortexing at slow speed to prevent precipitation. The 5× substrate is prepared by diluting the 1 mM substrate solution 1:20 by adding it drop-wise to assay buffer (equilibrated to room temperature) while vortexing at slow speed to prevent precipitation.
# 3× (30 μM) Developer/Stop Solution is prepared just prior to addition to the plate by diluting a stock solution of 10 mM reference compound 1:333 in 25 mg/ml trypsin (PAA Laboratories Ltd.) equilibrated to room temperature.
# 5 μl of each solution of 1:20 diluted compound from above is transferred to a clear bottomed, black, 384-well assay plate using the Bravo or the Janus (384-well MDT head from Perkin Elmer). Using a 16-channel Matrix multi-channel pipette, 35 μl of the working solution of HDAC4 catalytic domain enzyme (0.2 μg/ml in assay buffer) is transferred to the assay plate. The assay is then started by adding 10 μl of 5× (50 μM) substrate to the assay plates using either the Bravo, Janus or 16-channel Matrix multi-channel pipette. The assay plate is then shaken for two minutes on an orbital shaker at 900 rpm (rotations per minute). Next the plate is incubated for 15 minutes at 37° C. The reaction is stopped by adding 25 al of 3× (30 μM) developer/stop solution to the assay plates using either the Bravo, Janus or a 16-channel Matrix multi-channel pipette. Assay plates are then shaken for 5 minutes on an orbital shaker at 1200 rpm. Next, the assay plates are incubated at 37° C. for 1 hour in a tissue culture incubator. Finally, the fluorescence is measured (Excitation: 355 nm, Emission: 460 nm) using PerkinElmer EnVision in top read mode.
# Sequence of human catalytic domain HDAC4 protein (amino acids 648-1032) (P56524 648-1032): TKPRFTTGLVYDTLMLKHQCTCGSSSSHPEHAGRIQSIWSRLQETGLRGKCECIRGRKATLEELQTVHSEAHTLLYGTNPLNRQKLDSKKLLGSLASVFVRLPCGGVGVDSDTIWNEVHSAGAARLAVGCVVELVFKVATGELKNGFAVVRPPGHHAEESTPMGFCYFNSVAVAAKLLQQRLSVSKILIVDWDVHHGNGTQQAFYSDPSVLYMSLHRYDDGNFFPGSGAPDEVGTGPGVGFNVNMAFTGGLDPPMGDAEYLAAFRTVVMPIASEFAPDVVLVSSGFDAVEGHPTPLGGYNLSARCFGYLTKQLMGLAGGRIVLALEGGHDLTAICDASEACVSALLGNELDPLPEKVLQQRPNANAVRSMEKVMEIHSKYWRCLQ
row,SMILES,IC50 [nM]
1,"Cc1c(F)cccc1[C@@]1(C(=O)NO)C=C(c2cncnc2)CC1 [Example 14, (S)-1-(3-fluoro-2-methylphenyl)-N-hydroxy-3-(pyrimidin-5-yl)cyclopent-2-enecarboxamide]",30
2,"Cc1c(F)cccc1[C@]1(C(=O)NO)C=C(c2cncc(F)c2)CC1 [Example 5, (R)-1-(3-fluoro-2-methylphenyl)-3-(5-fluoropyridin-3-yl)-N-hydroxycyclopent-2-enecarboxamide]",670
3,"Cc1c(F)cccc1[C@@]1(C(=O)NO)C=C(c2ccc3onc(C)c3c2)CC1 [Example 22, (S)-1-(3-fluoro-2-methylphenyl)-N-hydroxy-3-(3-methylbenzo[d]isoxazol-5-yl)cyclopent-2-enecarboxamide]",30
4,"COc1ncc(C2=C[C@](C(=O)NO)(c3cccc(F)c3C)CC2)cc1F [Example 23, (S)-1-(3-fluoro-2-methylphenyl)-3-(5-fluoro-6-methoxypyridin-3-yl)-N-hydroxycyclopent-2-enecarboxamide]",40
5,"O=C(NO)C1(c2ccccc2)CC=CC1 [Example 30, N-hydroxy-1-phenyl-cyclopent-3-enecarboxamide]",12300
6,"Cc1c(F)cccc1[C@@]1(C(=O)NO)C=C(c2cncc(C(F)(F)F)c2)CC1 [Example 17, (S)-1-(3-fluoro-2-methylphenyl)-N-hydroxy-3-(5-(trifluoromethyl)pyridin-3-yl)cyclopent-2-enecarboxamide]",30
7,"Cc1c(F)cccc1[C@@]1(C(=O)NO)C=C(c2ccc(F)cn2)CC1 [Example 15, (S)-1-(3-fluoro-2-methylphenyl)-3-(5-fluoropyridin-2-yl)-N-hydroxycyclopent-2-enecarboxamide]",40
8,"Cc1c(F)cccc1[C@@]1(C(=O)NO)C=C(c2cc(F)cnc2C2CC2)CC1 [Example 19, (S)-3-(2-cyclopropyl-5-fluoropyridin-3-yl)-1-(3-fluoro-2-methylphenyl)-N-hydroxycyclopent-2-enecarboxamide]",40
9,"Cc1ccccc1C1=C[C@@](C(=O)NO)(c2cccc(F)c2C)CC1 [Example 3, (R)-1-(3-fluoro-2-methyl-phenyl)-N-hydroxy-3-(o-tolyl)cyclopent-2-ene-1-carboxamide]",230
10,"Cc1c(F)cccc1[C@@]1(C(=O)NO)C=C(c2ccc3cnn(C(F)F)c3c2)CC1 [Example 39, (S)-3-(1-(difluoromethyl)-1H-indazol-6-yl)-1-(3-fluoro-2-methylphenyl)-N-hydroxycyclopent-2-enecarboxamide]",30
11,"O=C(NO)[C@]1(c2ccccc2)C=C(c2cncc(F)c2)CC1 [Example 35, (S)-3-(5-fluoropyridin-3-yl)-N-hydroxy-1-phenylcyclopent-2-enecarboxamide]",340
12,"Cc1c(F)cccc1[C@@]1(C(=O)NO)C=C(c2cccc3cnsc23)CC1 [Example 29, (S)-3-(benzo[d]isothiazol-7-yl)-1-(3-fluoro-2-methylphenyl)-N-hydroxycyclopent-2-enecarboxamide]",30
13,"Cc1c(F)cccc1C1(C(=O)NO)CC=C(c2cncc(F)c2)CC1 (stereo not shown) [Example 44, 3′-fluoro-4-(5-fluoropyridin-3-yl)-N-hydroxy-2′-methyl-1,2,3,6-tetrahydro-[1,1′-biphenyl]-1-carboxamide]",490
14,"O=C(NO)C1(c2ccccc2F)CC=CC1 [Example 31, 1-(2-fluorophenyl)-N-hydroxy-cyclopent-3-enecarboxamide]",8300
15,"O=C(NO)[C@@]1(c2ccccc2)C=C(c2ccccc2)CC1 [Example 34, (R)—N-hydroxy-1,3-diphenylcyclopent-2-enecarboxamide]",31000
16,"Cc1c(F)cccc1[C@]1(C(=O)NO)C=C(c2ccccc2)CC1 [Example 1, (R)-1-(3-fluoro-2-methylphenyl)-N-hydroxy-3-phenylcyclopent-2-enecarboxamide]",7600
17,"Cc1c(F)cccc1[C@@]1(C(=O)NO)C=C(c2ccnc(C(F)(F)F)c2)CC1 [Example 13, (S)-1-(3-fluoro-2-methylphenyl)-N-hydroxy-3-(2-(trifluoromethyl)pyridin-4-yl)cyclopent-2-enecarboxamide]",40
18,"Cc1c(F)cccc1[C@]1(C(=O)NO)C=C(c2cnccn2)CC1 [Example 7, (R)-1-(3-fluoro-2-methylphenyl)-N-hydroxy-3-(pyrazin-2-yl)cyclopent-2-ene carboxamide]",> 50000
19,"Cc1c(F)cccc1[C@@]1(C(=O)NO)C=C(c2cnn(CC(F)(F)F)c2)CC1 [Example 28, (S)-1-(3-fluoro-2-methylphenyl)-N-hydroxy-3-(1-(2,2,2-trifluoroethyl)-1H-pyrazol-4-yl)cyclopent-2-enecarboxamide]",20
20,"O=C(NO)[C@]1(c2ccccc2)C=C(c2ccccc2)CC1 [Example 33, (S)—N-hydroxy-1,3-diphenylcyclopent-2-enecarboxamide]",190

# Continued by falling IC50, values first:
row,IC50 [nM],SMILES
1,20,"Cc1c(F)cccc1[C@@]1(C(=O)NO)C=C(c2cnc(C3CC3)nc2)CC1 [Example 24, (S)-3-(2-cyclopropylpyrimidin-5-yl)-1-(3-fluoro-2-methylphenyl)-N-hydroxycyclopent-2-enecarboxamide]"
2,20,"Cc1ccccc1C1=C[C@](C(=O)NO)(c2cccc(F)c2C)CC1 [Example 4, (S)-1-(3-fluoro-2-methyl-phenyl)-N-hydroxy-3-(o-tolyl)cyclopent-2-ene-1-carboxamide]"
3,20,"Cc1c(F)cccc1[C@@]1(C(=O)NO)C=C(c2cncc(Cl)c2)CC1 [Example 11, (S)-3-(5-chloropyridin-3-yl)-1-(3-fluoro-2-methylphenyl)-N-hydroxycyclopent-2-enecarboxamide]"
4,20,"Cc1c(F)cccc1[C@@]1(C(=O)NO)C=C(c2ccc(C(F)(F)F)nc2)CC1 [Example 16, (S)-1-(3-fluoro-2-methylphenyl)-N-hydroxy-3-(6-(trifluoromethyl)pyridin-3-yl)cyclopent-2-enecarboxamide]"
5,20,"Cc1c(F)cccc1[C@@]1(C(=O)NO)C=C(c2cc3ccccc3s2)CC1 [Example 41, (S)-3-(benzo[b]thiophen-2-yl)-1-(3-fluoro-2-methylphenyl)-N-hydroxycyclopent-2-enecarboxamide]"
6,20,"Cc1c(F)cccc1[C@@]1(C(=O)NO)C=C(c2ccccc2)CC1 [Example 2, (S)-1-(3-fluoro-2-methylphenyl)-N-hydroxy-3-phenylcyclopent-2-enecarboxamide]"
7,20,"Cc1ncc(Cl)cc1C1=C[C@](C(=O)NO)(c2cccc(F)c2C)CC1 [Example 36, (S)-3-(5-chloro-2-methylpyridin-3-yl)-1-(3-fluoro-2-methylphenyl)-N-hydroxycyclopent-2-enecarboxamide]"
8,10,"Cc1ccc(C2=C[C@](C(=O)NO)(c3cccc(F)c3C)CC2)cn1 [Example 25, (S)-1-(3-fluoro-2-methylphenyl)-N-hydroxy-3-(6-methylpyridin-3-yl)cyclopent-2-enecarboxamide]"
9,10,"Cc1c(F)cccc1[C@@]1(C(=O)NO)C=C(c2ccc3cnn(C)c3c2)CC1 [Example 38, (S)-1-(3-fluoro-2-methylphenyl)-N-hydroxy-3-(1-methyl-1H-indazol-6-yl)cyclopent-2-enecarboxamide]"
10,10,"Cc1c(F)cccc1[C@@]1(C(=O)NO)C=C(c2cncc(F)c2)CC1 [Example 6, (S)-1-(3-fluoro-2-methylphenyl)-3-(5-fluoropyridin-3-yl)-N-hydroxycyclopent-2-enecarboxamide]"
11,10,"Cc1c(F)cccc1[C@@]1(C(=O)NO)C=C(c2ccc3scnc3c2)CC1 [Example 40, (S)-3-(benzo[d]thiazol-5-yl)-1-(3-fluoro-2-methylphenyl)-N-hydroxycyclopent-2-enecarboxamide]"

# — patent US9617259B2, “Histone deacetylase inhibitors and compositions and methods of use thereof” (CHDI Foundation, Inc., priority 2013, dated 2017)
